Blank lines part the entries; values can stand above or below the molecule they belong to.
Columns and labels:
[1] = molecular target: T1, CDK9/cyclin T1 (Homo sapiens, UniProt P50750); experiment: Competitive irreversible inhibition of CDK9/cyclin T (unknown origin); type: protein-complex assay
[2] = molecular target: T2, Cyclin-dependent kinase 2/cyclin E1 (Homo sapiens, UniProt P24941); experiment: Competitive irreversible inhibition of CDK2/cyclin E (unknown origin); type: protein-complex assay
[3] = molecular target: Cyclin-dependent kinase 1 (Homo sapiens) (UniProt P06493); experiment: Inhibition of CDK1 (unknown origin) relative to control; conditions: concentration not given here
[4] = molecular target: T3, Cyclin-dependent kinase 2 (Homo sapiens, UniProt P24941); experiment: Inhibition of CDK2 (unknown origin) relative to control; conditions: concentration not given here
[5] = molecular target: T1, CDK9/cyclin T1; experiment: Competitive irreversible inhibition of CDK9/cyclin T (unknown origin) in presence of Km ATP; type: protein-complex assay
[6] = molecular target: T2, Cyclin-dependent kinase 2/cyclin E1; experiment: Competitive reversible inhibition of CDK2/cyclin E (unknown origin); type: protein-complex assay
[7] = molecular target: Cyclin-dependent kinase 5 (Homo sapiens, UniProt Q00535); experiment: Competitive reversible inhibition of CDK5 (unknown origin)
Sequence of Cyclin-dependent kinase 5 (Q00535 whole entry): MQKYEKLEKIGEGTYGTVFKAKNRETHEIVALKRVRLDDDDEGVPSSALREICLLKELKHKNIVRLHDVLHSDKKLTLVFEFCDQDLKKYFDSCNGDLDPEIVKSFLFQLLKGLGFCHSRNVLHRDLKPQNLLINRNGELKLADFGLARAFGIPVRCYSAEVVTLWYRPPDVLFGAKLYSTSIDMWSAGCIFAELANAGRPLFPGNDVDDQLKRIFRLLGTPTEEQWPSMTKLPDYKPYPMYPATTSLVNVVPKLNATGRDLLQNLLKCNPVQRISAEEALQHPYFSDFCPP

[8] = molecular target: T4, CDK7/Cyclin H/MNAT1 (Homo sapiens, UniProt P50613); experiment: Competitive irreversible inhibition of CDK7/cyclinH/MAT1 (unknown origin); type: protein-complex assay
T4 sequence (P51946 whole entry): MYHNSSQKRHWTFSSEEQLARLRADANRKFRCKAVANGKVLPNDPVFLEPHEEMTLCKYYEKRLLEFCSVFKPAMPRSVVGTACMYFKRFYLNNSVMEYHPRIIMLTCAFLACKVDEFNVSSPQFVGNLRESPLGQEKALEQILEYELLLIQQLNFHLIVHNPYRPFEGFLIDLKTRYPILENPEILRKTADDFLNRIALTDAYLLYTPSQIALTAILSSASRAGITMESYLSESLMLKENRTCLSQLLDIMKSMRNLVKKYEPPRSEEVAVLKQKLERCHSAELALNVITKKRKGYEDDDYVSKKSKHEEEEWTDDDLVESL
T4 sequence (P50613 whole entry): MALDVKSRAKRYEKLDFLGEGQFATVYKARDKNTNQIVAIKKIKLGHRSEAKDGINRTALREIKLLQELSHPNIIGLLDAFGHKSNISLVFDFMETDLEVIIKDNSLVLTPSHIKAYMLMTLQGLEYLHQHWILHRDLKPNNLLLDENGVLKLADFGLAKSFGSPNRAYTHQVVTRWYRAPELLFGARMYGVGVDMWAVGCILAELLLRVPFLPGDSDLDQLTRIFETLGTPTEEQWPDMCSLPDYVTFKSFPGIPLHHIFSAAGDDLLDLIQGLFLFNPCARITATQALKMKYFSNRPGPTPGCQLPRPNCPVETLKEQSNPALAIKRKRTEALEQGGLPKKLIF
T4 sequence (P51948 whole entry, further chain): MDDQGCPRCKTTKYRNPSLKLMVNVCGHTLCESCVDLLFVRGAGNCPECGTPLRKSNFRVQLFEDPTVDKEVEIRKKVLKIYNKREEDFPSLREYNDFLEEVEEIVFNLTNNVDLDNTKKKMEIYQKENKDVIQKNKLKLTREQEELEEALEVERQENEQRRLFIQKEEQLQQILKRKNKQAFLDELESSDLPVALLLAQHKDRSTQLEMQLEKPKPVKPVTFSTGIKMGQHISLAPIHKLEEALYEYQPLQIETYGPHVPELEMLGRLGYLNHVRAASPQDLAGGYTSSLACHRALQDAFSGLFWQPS

[9] = molecular target: T5, CDK12/Cyclin K (Homo sapiens, UniProt Q9NYV4); experiment: Competitive irreversible inhibition of CDK12/cyclinK (unknown origin) in presence of Km ATP; type: protein-complex assay
T5 sequence (O75909 whole entry): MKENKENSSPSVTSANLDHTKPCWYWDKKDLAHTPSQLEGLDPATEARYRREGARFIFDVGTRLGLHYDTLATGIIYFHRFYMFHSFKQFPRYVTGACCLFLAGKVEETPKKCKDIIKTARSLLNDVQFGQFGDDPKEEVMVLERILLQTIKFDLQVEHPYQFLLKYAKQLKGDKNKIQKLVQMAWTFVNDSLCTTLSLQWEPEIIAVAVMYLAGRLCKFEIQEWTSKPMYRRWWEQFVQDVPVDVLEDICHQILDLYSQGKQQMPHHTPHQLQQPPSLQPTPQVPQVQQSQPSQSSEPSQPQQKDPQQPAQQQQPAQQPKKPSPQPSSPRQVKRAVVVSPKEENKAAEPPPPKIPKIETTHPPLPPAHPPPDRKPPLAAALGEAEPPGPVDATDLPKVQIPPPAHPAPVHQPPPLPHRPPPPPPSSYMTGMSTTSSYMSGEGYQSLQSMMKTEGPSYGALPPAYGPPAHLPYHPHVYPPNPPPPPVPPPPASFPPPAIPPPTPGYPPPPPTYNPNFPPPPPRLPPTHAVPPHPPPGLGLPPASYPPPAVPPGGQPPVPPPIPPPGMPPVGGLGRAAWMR
T5 sequence (Q9NYV4 whole entry): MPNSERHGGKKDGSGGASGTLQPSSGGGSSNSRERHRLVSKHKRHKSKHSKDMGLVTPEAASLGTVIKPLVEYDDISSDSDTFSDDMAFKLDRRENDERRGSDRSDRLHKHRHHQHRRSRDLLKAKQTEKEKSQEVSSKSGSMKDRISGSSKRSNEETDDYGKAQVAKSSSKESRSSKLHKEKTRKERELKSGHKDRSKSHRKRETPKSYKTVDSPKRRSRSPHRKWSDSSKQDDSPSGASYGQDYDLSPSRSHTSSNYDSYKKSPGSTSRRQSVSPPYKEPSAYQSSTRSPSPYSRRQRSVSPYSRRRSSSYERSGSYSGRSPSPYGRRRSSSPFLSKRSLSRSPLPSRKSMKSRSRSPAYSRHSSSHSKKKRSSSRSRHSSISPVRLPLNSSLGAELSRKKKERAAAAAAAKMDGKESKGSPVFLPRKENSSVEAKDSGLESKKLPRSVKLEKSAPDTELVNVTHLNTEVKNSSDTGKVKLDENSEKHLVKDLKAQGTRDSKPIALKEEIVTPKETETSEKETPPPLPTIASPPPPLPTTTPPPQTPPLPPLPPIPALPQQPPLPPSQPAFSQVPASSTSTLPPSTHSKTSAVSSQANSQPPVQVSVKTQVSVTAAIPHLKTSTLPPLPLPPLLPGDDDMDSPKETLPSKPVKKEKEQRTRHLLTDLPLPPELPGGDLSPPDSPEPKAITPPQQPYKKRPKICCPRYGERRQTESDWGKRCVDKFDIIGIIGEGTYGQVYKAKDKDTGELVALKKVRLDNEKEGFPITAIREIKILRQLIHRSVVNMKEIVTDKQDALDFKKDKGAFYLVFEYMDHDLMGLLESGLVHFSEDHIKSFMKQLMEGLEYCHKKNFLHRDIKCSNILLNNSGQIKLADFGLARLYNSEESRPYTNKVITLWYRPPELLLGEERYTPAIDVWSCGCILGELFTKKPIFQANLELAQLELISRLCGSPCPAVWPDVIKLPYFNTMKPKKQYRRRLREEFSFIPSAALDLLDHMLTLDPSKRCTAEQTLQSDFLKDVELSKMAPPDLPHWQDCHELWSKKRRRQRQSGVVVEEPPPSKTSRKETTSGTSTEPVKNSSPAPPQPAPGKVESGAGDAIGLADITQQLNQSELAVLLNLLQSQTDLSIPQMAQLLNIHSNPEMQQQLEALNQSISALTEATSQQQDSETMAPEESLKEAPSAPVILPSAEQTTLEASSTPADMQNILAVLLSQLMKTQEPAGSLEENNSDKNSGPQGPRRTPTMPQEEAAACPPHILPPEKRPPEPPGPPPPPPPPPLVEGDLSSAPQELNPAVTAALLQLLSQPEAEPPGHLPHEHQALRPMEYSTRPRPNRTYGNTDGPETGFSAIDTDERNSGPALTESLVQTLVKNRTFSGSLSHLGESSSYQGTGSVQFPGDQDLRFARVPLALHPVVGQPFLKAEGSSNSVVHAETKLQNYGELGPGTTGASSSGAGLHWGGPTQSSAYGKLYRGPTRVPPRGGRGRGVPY

[10] = molecular target: T4, CDK7/Cyclin H/MNAT1; experiment: Competitive irreversible inhibition of CDK7/cyclinH/MAT1 (unknown origin) using 5-FAM YSPTSPSYSPTSPSYSPTSPSKKKK as substrate; type: protein-complex assay
[11] = test system: HL-60; experiment: Antiproliferative activity against human HL60 cells after 72 hrs by CellTiter-Glo assay; type: functional, cell-based; conditions: HL-60, 72 h
[12] = Clearance in mouse; type: ADME, organism-based; conditions: in vivo
[13] = molecular target: T4, CDK7/Cyclin H/MNAT1; experiment: Competitive irreversible inhibition of CDK7/cyclinH/MAT1 (unknown origin) using 5-FAM YSPTSPSYSPTSPSYSPTSPSKKKK as substrate in presence of Km ATP; type: protein-complex assay
[14] = molecular target: T4, CDK7/Cyclin H/MNAT1; experiment: Competitive irreversible inhibition of CDK7/cyclinH/MAT1 (unknown origin) using 5-FAM YSPTSPSYSPTSPSYSPTSPSKKKK as substrate in presence of 2 mM ATP; type: protein-complex assay
[15] = molecular target: T6, CDK7/Cyclin H/MNAT1 (Homo sapiens) (UniProt P51946+P50613+P51948); experiment: Competitive irreversible inhibition of CDK7/cyclinH/MAT1 (unknown origin) assessed as inactivation constant using 5-FAM YSPTSPSYSPTSPSYSPTSPSKKKK as substrate; type: protein-complex assay
[16] = molecular target: T6, CDK7/Cyclin H/MNAT1 (Homo sapiens); experiment: Ratio of Ki CDK7/cyclinH/MAT1 (unknown origin) to Kinact CDK7/cyclinH/MAT1 (unknown origin) assessed as inactivation constant; type: protein-complex assay
[17] = test system: Hs 683; experiment: Antiproliferative activity against human Hs683 cells; type: functional, cell-based
[18] = molecular target: Cyclin-dependent kinase 6 (Homo sapiens, UniProt Q00534); experiment: Competitive reversible inhibition of CDK6 (unknown origin)
[19] = molecular target: Cyclin-dependent kinase 8 (Homo sapiens, UniProt P49336); experiment: Competitive reversible inhibition of CDK8 (unknown origin)
Sequence of Cyclin-dependent kinase 8 (P49336 whole entry): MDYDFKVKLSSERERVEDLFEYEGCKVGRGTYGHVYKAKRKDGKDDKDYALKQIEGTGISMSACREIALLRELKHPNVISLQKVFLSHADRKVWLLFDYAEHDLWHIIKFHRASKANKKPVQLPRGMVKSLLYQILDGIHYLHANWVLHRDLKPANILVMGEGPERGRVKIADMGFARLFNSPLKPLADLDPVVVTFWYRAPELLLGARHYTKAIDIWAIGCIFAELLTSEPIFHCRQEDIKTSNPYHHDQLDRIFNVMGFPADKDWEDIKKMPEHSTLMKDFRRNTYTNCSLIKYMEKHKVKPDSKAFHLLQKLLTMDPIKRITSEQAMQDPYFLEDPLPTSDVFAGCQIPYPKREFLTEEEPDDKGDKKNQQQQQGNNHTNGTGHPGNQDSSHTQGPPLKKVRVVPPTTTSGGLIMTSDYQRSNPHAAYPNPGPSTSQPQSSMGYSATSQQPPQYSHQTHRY

[20] = molecular target: Cyclin-dependent kinase 4 (Homo sapiens, UniProt P11802); experiment: Competitive reversible inhibition of CDK4 (unknown origin)
[21] = Antiproliferative activity against imatinib-resistant human K562R-2 cells; type: functional
[22] = molecular target: T3, Cyclin-dependent kinase 2; experiment: Inhibition of CDK2 (unknown origin)
[23] = test system: K562; experiment: Antiproliferative activity against wild type human K562 cells; type: functional, cell-based
[24] = Antiproliferative activity against imatinib-resistant human K562R-1 cells; type: functional
[25] = molecular target: Cyclin-dependent kinase 14/Cyclin-Y (Homo sapiens, UniProt O94921+Q8ND76); experiment: Competitive irreversible inhibition of CDK14/cyclin Y (unknown origin) in presence of Km ATP; type: protein-complex assay
[26] = test system: MCF7; experiment: Antiproliferative activity against human MCF7 cells; type: functional, cell-based
[27] = test system: OVCAR-3; experiment: Antiproliferative activity against human OVCAR3 cells; type: functional, cell-based
[28] = test system: HCT-116; experiment: Anti-tumor activity in human HCT116 cells xenografted in in vivo animal model assessed tumor growth inhibition at 100 mg/kg, qd after 13 days relative to control; type: functional; conditions: HCT-116, 312 h, read-out: TGI
[29] = molecular target: T4, CDK7/Cyclin H/MNAT1; experiment: Competitive irreversible inhibition of CDK7/cyclinH/MAT1 (unknown origin) in presence of 1 mM ATP; type: protein-complex assay
[30] = molecular target: Serine/threonine-protein kinase Nek10 (Homo sapiens, UniProt Q6ZWH5); experiment: Binding affinity to NEK10 (unknown origin)
[31] = molecular target: NUAK family SNF1-like kinase 2 (Homo sapiens, UniProt Q9H093); experiment: Binding affinity to SNARK (unknown origin)
[32] = molecular target: Receptor-type tyrosine-protein kinase FLT3 (Homo sapiens, UniProt P36888, D835V); experiment: Binding affinity to human FLT3 D835V mutant
[33] = molecular target: Receptor-type tyrosine-protein kinase FLT3 (Homo sapiens, UniProt P36888, ITD); experiment: Binding affinity to human FLT3 ITD mutant
[34] = molecular target: CDK9/Cyclin-H (Homo sapiens, UniProt P50750+P51946); experiment: Inhibition of CDK9/cyclin H (unknown origin); type: protein-complex assay
Sequence of CDK9/Cyclin-H (P51946 whole entry): as the sequence (P51946 whole entry) above
Sequence of CDK9/Cyclin-H (P50750 whole entry): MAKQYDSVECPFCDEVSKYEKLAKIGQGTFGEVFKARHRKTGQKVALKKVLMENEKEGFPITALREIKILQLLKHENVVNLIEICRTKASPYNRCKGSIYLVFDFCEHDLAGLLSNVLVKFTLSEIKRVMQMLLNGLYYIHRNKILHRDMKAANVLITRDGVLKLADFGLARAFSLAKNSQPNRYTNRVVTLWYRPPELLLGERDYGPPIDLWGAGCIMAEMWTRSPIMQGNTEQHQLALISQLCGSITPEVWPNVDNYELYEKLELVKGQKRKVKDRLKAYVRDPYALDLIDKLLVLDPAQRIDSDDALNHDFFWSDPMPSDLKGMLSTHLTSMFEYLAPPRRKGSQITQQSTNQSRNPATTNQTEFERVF

[35] = molecular target: Cyclin-dependent kinase 4/cyclin D1 (Homo sapiens, UniProt P11802); experiment: Inhibition of human CDK4/cyclinD1; type: protein-complex assay
[36] = molecular target: T2, Cyclin-dependent kinase 2/cyclin E1; experiment: Inhibition of human CDK2/cyclin E; type: protein-complex assay
[37] = molecular target: T5, CDK12/Cyclin K
[38] = molecular target: Cyclin-dependent kinase 13/Cyclin-K (Homo sapiens, UniProt Q14004)
[39] = molecular target: T3, Cyclin-dependent kinase 2; experiment: Binding affinity to CDK2 (unknown origin) assessed as association rate constant
[40] = molecular target: T3, Cyclin-dependent kinase 2; experiment: Binding affinity to CDK2 (unknown origin) assessed as dissociation rate constant
[41] = molecular target: T3, Cyclin-dependent kinase 2; experiment: Binding affinity to CDK2 (unknown origin) assessed as inactivation constant

T1 sequence (O60563 whole entry): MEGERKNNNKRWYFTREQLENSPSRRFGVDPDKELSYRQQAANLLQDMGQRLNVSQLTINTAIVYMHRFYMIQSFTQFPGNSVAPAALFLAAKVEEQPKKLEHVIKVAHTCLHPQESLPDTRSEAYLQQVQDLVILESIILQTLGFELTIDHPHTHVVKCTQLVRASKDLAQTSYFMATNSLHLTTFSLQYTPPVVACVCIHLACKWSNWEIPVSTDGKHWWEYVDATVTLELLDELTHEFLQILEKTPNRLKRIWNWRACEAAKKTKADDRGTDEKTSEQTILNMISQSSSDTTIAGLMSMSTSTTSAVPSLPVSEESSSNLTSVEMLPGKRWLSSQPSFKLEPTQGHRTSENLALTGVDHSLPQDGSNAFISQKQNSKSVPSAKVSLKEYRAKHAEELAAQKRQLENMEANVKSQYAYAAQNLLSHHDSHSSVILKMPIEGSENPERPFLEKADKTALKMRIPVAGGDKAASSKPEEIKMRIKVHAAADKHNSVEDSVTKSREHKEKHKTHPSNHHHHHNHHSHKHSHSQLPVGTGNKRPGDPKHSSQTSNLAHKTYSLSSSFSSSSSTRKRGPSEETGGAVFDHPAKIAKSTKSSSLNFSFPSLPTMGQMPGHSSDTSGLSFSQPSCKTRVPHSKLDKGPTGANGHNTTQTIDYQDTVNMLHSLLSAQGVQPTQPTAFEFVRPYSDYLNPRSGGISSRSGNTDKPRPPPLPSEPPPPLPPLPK
T1 sequence (P50750 whole entry): as the sequence (P50750 whole entry) above

SMILES: CN(C)C/C=C/C(=O)Nc1ccc(C(=O)N2CCC[C@@H](Nc3ncc(Cl)c(-c4c[nH]c5ccccc45)n3)C2)cc1
IC50 [5]: 834 nM

SMILES: CC[C@H](Nc1nc(NCc2cnc(C)cc2C)c2ncn(C(C)C)c2n1)[C@@H](C)O [CYC-065]
IC50 [6]: 5 nM
IC50 [7]: 23 nM

SMILES: CN1CCN(c2ccc(Nc3ncc4cc5n(c4n3)C3(CCCCC3)CNC5=O)nc2)CC1 [TRILACICLIB]
IC50 [17]: 30 nM

SMILES: CC(C)c1cnn2c(NCc3ccccc3)cc(NCCCCCCN)nc12
IC50 [18]: 47000 nM
IC50 [19]: 4200 nM
IC50 [20]: 33000 nM
IC50 [7]: 3000 nM

SMILES: O=C1Nc2ccc([N+](=O)[O-])cc2/C1=C1/Nc2ccc(O)cc2/C1=N\O
IC50 [21]: 711 nM
IC50 [22]: 2 to 60 nM
IC50 [23]: 669 nM
IC50 [24]: 856 nM

SMILES: CC(C)c1cnn2c(NCc3ccccc3)cc(N[C@@H](CO)[C@H](O)CO)nc12
IC50 [19]: 90 nM

SMILES: CN(C)C/C=C/C(=O)Nc1cccc(S(=O)(=O)N2CCC(NC(=O)c3n[nH]cc3NC(=O)c3c(Cl)cc(Cl)cc3Cl)CC2)c1
IC50 [25]: 88 nM

SMILES: C[C@@]1(O)CCC[C@H]1n1c(=O)c(C(F)F)cc2cnc(NC3CCN(S(C)(=O)=O)CC3)nc21 [EBVACICLIB]
IC50 [26]: 48 nM
IC50 [27]: 48 nM

SMILES: CC(C)c1cnn2c(NCc3ccccc3)cc(NC[C@H]3CCNC[C@@H]3O)nc12 [CT-7001]
inhibition in vivo at 100 mg/kg [28]: 60%
IC50 [18]: 34000 nM
IC50 [19]: 1200 nM
IC50 [20]: 49000 nM
IC50 [7]: 9400 nM

SMILES: CC(C)N1CCN(c2ccc(Nc3ncc4cc5n(c4n3)C3(CCCCC3)CNC5=O)nc2)CC1 [LEROCICLIB]
Kd [30]: 0.2 nM
Kd [31]: 0.7 nM
Kd [32]: 22 nM
Kd [33]: 6.5 nM
IC50 [34]: 280 nM
EC50 [35]: < 100 nM
EC50 [36]: < 100 nM

SMILES: CN(C)C/C=C/C(=O)Nc1ccc(C(=O)Nc2cccc(Nc3ncc(Cl)c(-c4c[nH]c5ccccc45)n3)c2)cc1
IC50 [9]: 371 nM
EC50 [11]: 38 nM
clearance [12]: 129 mL/min/kg
IC50 [37]: 893 nM
IC50 [38]: 628 nM

SMILES: C=CS(=O)(=O)c1ccc(Nc2nc(OCC3CCCCC3)c3nc[nH]c3n2)cc1
K [39]: 0.55 ×10⁶ /M/s
K [40]: 0.07 s⁻¹
Kinact [41]: 5 ×10³ /M/s

Results, then the molecule that gave them:

IC50 [1]: 20 nM
IC50 [2]: 932 nM
SMILES: C=CC(=O)Nc1cccc(Nc2cc(N3CCCC[C@H]3CCO)nc3c(CC)cnn23)c1

inhibition [3]: -2%
inhibition [4]: 5%
SMILES: C=CC(=O)N1CCN(C(=O)OC)c2ccccc21

EC50 [8]: 13 nM
IC50 [9]: 20 nM
IC50 [5]: 914 nM
Ki [10]: 17.4 nM
EC50 [11]: 8 nM
clearance [12]: 6 mL/min/kg
IC50 [13]: 84 nM
IC50 [14]: 590 nM
SMILES: CN(C)C/C=C/C(=O)Nc1ccc(C(=O)N[C@@]2(C)CCC[C@@H](Nc3ncc(Cl)c(-c4c[nH]c5ccccc45)n3)C2)nc1

EC50 [8]: 48 nM
IC50 [9]: 312 nM
IC50 [5]: 627 nM
Kinact [15]: 4.8 h⁻¹
Ki [10]: 105 nM
Ratio [16]: 0.013 µM⁻¹ s⁻¹
EC50 [11]: 13 nM
clearance [12]: 17 mL/min/kg
IC50 [13]: 112 nM
IC50 [14]: 908 nM
SMILES: CN(C)C/C=C/C(=O)Nc1ccc(C(=O)N[C@H]2CCC[C@@H](Nc3ncc(Cl)c(-c4c[nH]c5ccccc45)n3)C2)cc1

EC50 [8]: 4 nM
IC50 [5]: 226 nM
Kinact [15]: 11.3 h⁻¹
Ki [10]: 62.5 nM
Ratio [16]: 0.05 µM⁻¹ s⁻¹
EC50 [11]: 3 nM
clearance [12]: 29 mL/min/kg
IC50 [13]: 23 nM
IC50 [14]: 205 nM
SMILES: CN(C)C/C=C/C(=O)Nc1ccc(C(=O)N[C@H]2CCC[C@@H](Nc3ncc(Cl)c(-c4c[nH]c5ccccc45)n3)C2)nc1

IC50 [29]: 53 nM
SMILES: C=CC(=O)Nc1ccc(C(=O)Nc2n[nH]c3c2CN(C(=O)N[C@H](CN(C)C)c2ccccc2)C3(C)C)cc1

inhibition [3]: 2%
inhibition [4]: 83%
SMILES: C=CC(=O)N1CCN(C(=O)OC(C)(C)C)c2ccccc21
